Usually IC50 stands for the midpoint of a concentration-inhibition curve. Low readings indicate inhibition by little substance, high ones a need for much substance. For orientation: Ki means the equilibrium dissociation constant of an inhibitor or competing ligand from its target. The pIC50 is the IC50 on a negative log10 scale, so that one unit is a factor of ten.

Consider 15 compounds from publication PMC12682127, “Structural basis for inhibition of Mycobacterium tuberculosis α-methylacyl-CoA racemase by 2-arylthiopropanoyl-CoA inhibitor analogs” (The Journal of Biological Chemistry, 2025).

Each structure is given as a SMILES string. Where two headings read alike, the source gives them in different places.

For test [1], the target named is T1, Mycobacterium tuberculosis α-methylacyl-CoA racemase (MCR) (Mycobacterium tuberculosis, UniProt O06543). Nature of the test: MCR inhibition, colorimetric assay, dose-response curves. The format is biochemical. Further details: made in house.
Test [2] deals with T1, Mycobacterium tuberculosis α-methylacyl-CoA racemase (MCR). Kind of test: Jump-dilution experiment for reversibility of MCR inhibition. The format is biochemical. Set-up: made in house. The following applies: inhibitor at 24 × or 0.24 × IC50, 12 min. How it is done:
Inhibition assays were conducted as previously described ([17]) in 50 mM NaH2PO4-NaOH, 100 mM NaCl, 1 mM EDTA (pH 7.4), and 3% (v/v) dimethylsulfoxide. Product formation was monitored at 354 nm. […] Enzyme and inhibitor were preincubated for 10 min before adding substrate to initiate the assay. Rates were determined using ICEKAT ([50], [51]), and dose-response curves ([36], [37]) were fitted using SigmaPlot 15.0 with a 4-parameter logistic model. Data are reported as pIC50 ± SEM (n = 3).

Test [3] has the same target. Kind of test: Inhibition mode determination / Ki (kinetic analysis, colorimetric assay). The format is biochemical. Further details: made in house. How it is done:
Enzyme and inhibitor solutions were pre-incubated for 10 min before adding these mixtures to the substrate to initiate the assay. Rates were determined using ICEKAT ([50], [51]) and analyzed with SigmaPlot 15.0 using Simple EK and enzyme kinetics macros ([53]). The best-fitting inhibition model was selected based on graphical analysis and statistical ranking of models. The Ki value was determined as the mean ± SEM from three independent repeats.

For test [4] the target is unchanged. Set-up: made in house; method as in PMID 40447188. The following applies: cited from earlier work.
For test [5] the target is unchanged. The following applies: mean ± SEM, n = 3; cited from earlier work.
The mark [6] stands for this setting: Log10 IC50, repeat 1, 4-parameter logistic fit coefficient.
Where [7] appears, read: Log10 IC50, repeat 2, 4-parameter logistic fit coefficient.
[8] abbreviates: Log10 IC50, repeat 3, 4-parameter logistic fit coefficient.
The mark [9] stands for this setting: pIC50, mean ± SEM, n = 3, MCR 3.12 nM, substrate 96 μM, 10 min preincubation, pH 7.4.
Where [10] appears, read: repeat 1, 4-parameter logistic fit coefficient.
The mark [11] stands for this setting: repeat 2, 4-parameter logistic fit coefficient.
Where [12] appears, read: repeat 3, 4-parameter logistic fit coefficient.

T1 sequence (O06543 whole entry): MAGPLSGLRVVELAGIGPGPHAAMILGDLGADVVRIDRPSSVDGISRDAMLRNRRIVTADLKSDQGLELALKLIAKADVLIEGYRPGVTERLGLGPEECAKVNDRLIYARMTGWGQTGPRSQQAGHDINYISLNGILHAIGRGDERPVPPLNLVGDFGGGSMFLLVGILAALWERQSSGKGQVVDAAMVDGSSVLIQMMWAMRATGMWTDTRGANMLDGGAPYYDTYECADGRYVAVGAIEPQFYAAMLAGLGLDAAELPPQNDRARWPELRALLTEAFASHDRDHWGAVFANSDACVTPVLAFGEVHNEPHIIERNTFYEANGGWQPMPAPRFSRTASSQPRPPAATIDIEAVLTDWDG

Consider `CCCCCOc1ccc(SC(C)C(=O)SCCNC(=O)CCNC(=O)C(O)C(C)(C)COP(=O)(O)OP(=O)(O)OCC2OC(n3cnc4c(N)ncnc43)C(O)C2OP(=O)(O)O)cc1` (racemic) [Compound 14, (±)-2-((4-(pentyloxy)phenyl)thio)propanoyl-CoA], for which the half-maximal inhibitory concentration (IC50) in test [1] (setting [6]) is 913 nM; in test [1] (setting [7]) it was 690 nM; in test [1] (setting [8]), 846 nM; in test [1] (setting [9]) it was 813 nM. In addition, the figures for the Hillslope in test [1] (setting [10]), in test [1] (setting [11]) and in test [1] (setting [12]) were -0.6352, -0.8783 and -0.7880, respectively.
With `CC(Sc1ccc(OCCc2cccc(C(F)(F)F)c2)cc1)C(=O)SCCNC(=O)CCNC(=O)C(O)C(C)(C)COP(=O)(O)OP(=O)(O)OCC1OC(n2cnc3c(N)ncnc32)C(O)C1OP(=O)(O)O` (racemic) [Compound 12, (±)-2-(4-(2-(3-Trifluoromethylphenethoxy)phenylthio)propanoyl-CoA], the IC50 in test [1] (setting [6]) is 828 nM; in test [1] (setting [7]), 706 nM; in test [1] (setting [8]) it was 1040 nM; in test [1] (setting [9]) it was 851 nM. In addition, the Hillslope is -1.1570 in test [1] (setting [10]), -1.0035 in test [1] (setting [11]) and -1.3522 in test [1] (setting [12]).
Consider `CC(Sc1cccc(OCc2ccccc2)c1)C(=O)SCCNC(=O)CCNC(=O)C(O)C(C)(C)COP(=O)(O)OP(=O)(O)OCC1OC(n2cnc3c(N)ncnc32)C(O)C1OP(=O)(O)O` (racemic) [Compound 2, (±)-2-(3-Benzyloxyphenylthio)propanoyl-CoA], for which the IC50 in test [1] (setting [6]) was 1630 nM; in test [1] (setting [7]) it was 619 nM; in test [1] (setting [8]), 487 nM; in test [1] (setting [9]), 794 nM. Besides, the Hillslope in test [1] (setting [10]) was -0.7954; in test [1] (setting [11]) it was -0.7479; in test [1] (setting [12]), -0.8395.
Take `COc1cccc(CCOc2cccc(SC(C)C(=O)SCCNC(=O)CCNC(=O)C(O)C(C)(C)COP(=O)(O)OP(=O)(O)OCC3OC(n4cnc5c(N)ncnc54)C(O)C3OP(=O)(O)O)c2)c1` (racemic) [Compound 5, (±)-2-(3-(2-(3-Methoxyphenyl)ethoxy)phenylthio)propanoyl-CoA]: the IC50 is 1470 nM in test [1] (setting [6]), 1260 nM in test [1] (setting [7]), 1490 nM in test [1] (setting [8]) and 1410 nM in test [1] (setting [9]). Further, the figures for the Hillslope in test [1] (setting [10]), in test [1] (setting [11]) and in test [1] (setting [12]) were -1.0666, -1.0398 and -0.8398, respectively.
On to `CC(Sc1cccc(OCCc2ccccc2)c1)C(=O)SCCNC(=O)CCNC(=O)C(O)C(C)(C)COP(=O)(O)OP(=O)(O)OCC1OC(n2cnc3c(N)ncnc32)C(O)C1OP(=O)(O)O` (racemic) [Compound 4, (±)-2-(3-(2-Phenylethoxy)phenylthio)propanoyl-CoA], for which the IC50 was 791 nM in test [1] (setting [6]), 891 nM in test [1] (setting [7]), 839 nM in test [1] (setting [8]) and 832 nM in test [1] (setting [9]). In addition, the Hillslope in test [1] (setting [10]) was -0.6564; in test [1] (setting [11]), -0.8291; in test [1] (setting [12]) it was -0.8501.
On to `CC(Sc1ccc(OCCc2ccccc2)cc1)C(=O)SCCNC(=O)CCNC(=O)C(O)C(C)(C)COP(=O)(O)OP(=O)(O)OCC1OC(n2cnc3c(N)ncnc32)C(O)C1OP(=O)(O)O` (racemic) [Compound 10, (±)-2-(4-(2-Phenylethoxy)phenylthio)propanoyl-CoA], for which the IC50 in test [1] (setting [6]) is 2140 nM; in test [1] (setting [7]) it was 3020 nM; in test [1] (setting [8]), 2490 nM; in test [1] (setting [9]), 2510 nM. Moreover, the Hillslope was -0.9669 in test [1] (setting [10]), -1.3506 in test [1] (setting [11]) and -1.1651 in test [1] (setting [12]).
In the case of `COc1cccc(CCOc2ccc(SC(C)C(=O)SCCNC(=O)CCNC(=O)C(O)C(C)(C)COP(=O)(O)OP(=O)(O)OCC3OC(n4cnc5c(N)ncnc54)C(O)C3OP(=O)(O)O)cc2)c1` (racemic) [Compound 11, (±)-2-(4-(2-(3-Methoxyphenyl)ethoxy)phenylthio)propanoyl-CoA], the IC50 was 669 nM in test [1] (setting [6]), 1310 nM in test [1] (setting [7]), 598 nM in test [1] (setting [8]) and 813 nM in test [1] (setting [9]). Moreover, the Hillslope is given as -0.8553 in test [1] (setting [10]), -1.1060 in test [1] (setting [11]) and -0.6966 in test [1] (setting [12]).
Consider `CC(Sc1cccc(OCCc2cccc(C(F)(F)F)c2)c1)C(=O)SCCNC(=O)CCNC(=O)C(O)C(C)(C)COP(=O)(O)OP(=O)(O)OCC1OC(n2cnc3c(N)ncnc32)C(O)C1OP(=O)(O)O` (racemic) [Compound 6, (±)-2-(3-(2-(3-Trifluoromethylphenyl)ethoxy)phenylthio)propanoyl-CoA], for which, in test [2], the Reversibility of inhibition result is on record as “reversible inhibition”. Also, the inhibitory constant (Ki) in test [3] (mean ± SEM, n = 3, competitive model) came out at 238 ± 39 nM; in test [3] (repeat 1), 190 nM; in test [3] (repeat 2) it was 315 nM; in test [3] (repeat 3), 210 nM. Besides, in test [3] (Lineweaver-Burk plot / kinetic analysis), the Mode of inhibition result is “competitive inhibition”. Further, the “Potency relative to ibuprofenoyl-CoA, from pIC50” value in test [1] is on record as “at least 13.5 times”. Also, the IC50 in test [1] (setting [6]) is 134 nM; in test [1] (setting [7]), 109 nM; in test [1] (setting [8]) it was 316 nM; in test [1] (setting [9]), 166 nM. For the same compound, the Hillslope was -0.6535 in test [1] (setting [10]), -0.6960 in test [1] (setting [11]) and -1.0454 in test [1] (setting [12]).
As for `CC(C(=O)SCCNC(=O)CCNC(=O)C(O)C(C)(C)COP(=O)(O)OP(=O)(O)OCC1OC(n2cnc3c(N)ncnc32)C(O)C1OP(=O)(O)O)c1cccc(Oc2ccccc2)c1` (racemic) [Compound 1, (±)-Fenoprofenoyl-CoA], the pIC50 in test [4] is on record as 5.43 ± 0.07.
With `CC(C)COc1cccc(SC(C)C(=O)SCCNC(=O)CCNC(=O)C(O)C(C)(C)COP(=O)(O)OP(=O)(O)OCC2OC(n3cnc4c(N)ncnc43)C(O)C2OP(=O)(O)O)c1` (racemic) [Compound 7, (±)-2-(3-(2-Methylpropoxy)phenylthio)propanoyl-CoA], the IC50 in test [1] (setting [6]) is 4030 nM; in test [1] (setting [7]) it was 3320 nM; in test [1] (setting [8]) it was 4760 nM; in test [1] (setting [9]) it was 3980 nM. Also, the values for the Hillslope in test [1] (setting [10]), in test [1] (setting [11]) and in test [1] (setting [12]) were -0.7207, -0.6683 and -0.7565, respectively.
`COc1cccc(COc2cccc(SC(C)C(=O)SCCNC(=O)CCNC(=O)C(O)C(C)(C)COP(=O)(O)OP(=O)(O)OCC3OC(n4cnc5c(N)ncnc54)C(O)C3OP(=O)(O)O)c2)c1` (racemic) [Compound 3, (±)-2-(3-(3-Methoxybenzyloxy)phenylthio)propanoyl-CoA]: the IC50 in test [1] (setting [6]) is 401 nM; in test [1] (setting [7]), 425 nM; in test [1] (setting [8]) it was 228 nM; in test [1] (setting [9]), 339 nM. Moreover, the Hillslope is given as -0.6534 in test [1] (setting [10]), -0.5594 in test [1] (setting [11]) and -0.7275 in test [1] (setting [12]).
Consider `COc1cccc(COc2ccc(SC(C)C(=O)SCCNC(=O)CCNC(=O)C(O)C(C)(C)COP(=O)(O)OP(=O)(O)OCC3OC(n4cnc5c(N)ncnc54)C(O)C3OP(=O)(O)O)cc2)c1` (racemic) [Compound 9, (±)-2-(4-(3-Methoxybenzyloxy)phenylthio)propanoyl-CoA], for which the IC50 in test [1] (setting [6]) is 2670 nM; in test [1] (setting [7]) it was 2250 nM; in test [1] (setting [8]) it was 2840 nM; in test [1] (setting [9]), 2570 nM. The values for the Hillslope in test [1] (setting [10]), in test [1] (setting [11]) and in test [1] (setting [12]) were -1.2477, -0.8652 and -1.1180, respectively.
In the case of `CC(C)COc1ccc(SC(C)C(=O)SCCNC(=O)CCNC(=O)C(O)C(C)(C)COP(=O)(O)OP(=O)(O)OCC2OC(n3cnc4c(N)ncnc43)C(O)C2OP(=O)(O)O)cc1` (racemic) [Compound 13, (±)-2-(4-(2-Methylpropoxy)phenylthio)propanoyl-CoA], the IC50 in test [1] (setting [6]) is 2070 nM; in test [1] (setting [7]) it was 1930 nM; in test [1] (setting [8]), 1640 nM; in test [1] (setting [9]), 1860 nM. Besides, the Hillslope is recorded as -0.7177 in test [1] (setting [10]), -0.8209 in test [1] (setting [11]) and -0.7335 in test [1] (setting [12]).
With `CC(C)Cc1ccc(C(C)C(=O)SCCNC(=O)CCNC(=O)C(O)C(C)(C)COP(=O)(O)OP(=O)(O)OCC2OC(n3cnc4c(N)ncnc43)C(O)C2OP(=O)(O)O)cc1` (centres unmarked) [ibuprofenoyl-CoA], the Ki in test [5] is 3040 ± 340 nM. Further, the pIC50 in test [4] is reported as 5.65 ± 0.05.
On to `CC(Sc1ccc(OCc2ccccc2)cc1)C(=O)SCCNC(=O)CCNC(=O)C(O)C(C)(C)COP(=O)(O)OP(=O)(O)OCC1OC(n2cnc3c(N)ncnc32)C(O)C1OP(=O)(O)O` (racemic) [Compound 8, (±)-2-(4-Benzyloxyphenylthio)propanoyl-CoA], for which the IC50 was 2620 nM in test [1] (setting [6]), 2610 nM in test [1] (setting [7]), 2800 nM in test [1] (setting [8]) and 2690 nM in test [1] (setting [9]). For the same compound, the Hillslope in test [1] (setting [10]) is listed as -0.8760; in test [1] (setting [11]), -0.9668; in test [1] (setting [12]) it was -0.9845.
